Laboratory results reported in PubChem BioAssay AID216 (DTP/NCI, 2004).
Several values for one entry are separate records, joined by “and”; a condition that tells them apart may be missing. Equal values may be shown once. Inconclusive results and toxic doses are left out.

Test system: BDF1 mice, P288 leukemia ip, survival T/C
Experiment: NCI In Vivo Anticancer Drug Screen. Data for tumor model P288 Lymphocytic Leukemia (intraperitoneal) in B6D2F1 (BDF1) mice
Settings: higher = longer survival
Description: The antitumor activity of compounds was measured in mice bearing transplantable tumors. Survival or tumor size were measured and the results are expressed as the measurement made in the treated group (T) divided by the measurement made in the vehicle treated control group (C). The tumor model used in this assay is P288 Lymphocytic Leukemia (intraperitoneal) in B6D2F1 (BDF1) mice

Cc1cc(N(CCCl)CCCl)ccc1N=Nc1ccccc1C(=O)O
T/C (endpoint: survival time, mean or median, dose: 0.45 mg/kg/injection, schedule: Q01DX Z (ip), vehicle: carboxymethylcellulose (CMC)): 108 % of control
T/C (endpoint: survival time, mean or median, dose: 0.9 mg/kg/injection, schedule: Q01DX Z (ip), vehicle: carboxymethylcellulose (CMC)): 105 % of control
T/C (endpoint: survival time, mean or median, dose: 1.8 mg/kg/injection, schedule: Q01DX Z (ip), vehicle: carboxymethylcellulose (CMC)): 104 % of control
T/C (endpoint: survival time, mean or median, dose: 3.75 mg/kg/injection, schedule: Q01DX Z (ip), vehicle: carboxymethylcellulose (CMC)): 101 % of control
T/C (endpoint: survival time, mean or median, dose: 5.0 mg/kg/injection, schedule: Q01DX010 (ip), vehicle: saline): 88 % of control and 90 % of control
T/C (endpoint: survival time, mean or median, dose: 7.5 mg/kg/injection, schedule: Q01DX Z (ip), vehicle: carboxymethylcellulose (CMC)): 108 % of control
T/C (endpoint: survival time, mean or median, dose: 10.0 mg/kg/injection, schedule: Q01DX010 (ip), vehicle: saline): 90 % of control and 94 % of control
T/C (endpoint: survival time, mean or median, dose: 20.0 mg/kg/injection, schedule: Q01DX010 (ip), vehicle: saline): 105 % of control and 90 % of control
T/C (endpoint: survival time, mean or median, dose: 40.0 mg/kg/injection, schedule: Q01DX010 (ip), vehicle: saline): 94 % of control

COc1ccc2c(c1OC)C(=O)O[C@@H]2[C@H]1c2c(cc3c(c2OC)OCO3)CCN1C
T/C (endpoint: survival time, mean or median, dose: 3.9 mg/kg/injection, schedule: Q01DX010 (ip), vehicle: saline): 112 % of control
T/C (endpoint: survival time, mean or median, dose: 7.8 mg/kg/injection, schedule: Q01DX010 (ip), vehicle: saline): 112 % of control
T/C (endpoint: survival time, mean or median, dose: 31.3 mg/kg/injection, schedule: Q01DX010 (ip), vehicle: saline): 106 % of control

O=c1[nH]c(=O)n(C2CC(O)C(CO)O2)cc1Br (stereo not drawn)
T/C (endpoint: survival time, mean or median, dose: 6.5 mg/kg/injection, schedule: Q01DX Z (ip), vehicle: carboxymethylcellulose (CMC)): 96 % of control
T/C (endpoint: survival time, mean or median, dose: 8.0 mg/kg/injection, schedule: Q01DX Z (ip), vehicle: carboxymethylcellulose (CMC)): 95 % of control
T/C (endpoint: survival time, mean or median, dose: 13.0 mg/kg/injection, schedule: Q01DX Z (ip), vehicle: carboxymethylcellulose (CMC)): 107 % of control
T/C (endpoint: survival time, mean or median, dose: 26.0 mg/kg/injection, schedule: Q01DX Z (ip), vehicle: carboxymethylcellulose (CMC)): 102 % of control
T/C (endpoint: survival time, mean or median, dose: 31.0 mg/kg/injection, schedule: Q01DX Z (ip), vehicle: carboxymethylcellulose (CMC)): 90 % of control

COc1cc2c(c(OC)c1OC)-c1ccc(N)c(=O)cc1[C@@H](NC(C)=O)CC2
T/C (endpoint: survival time, mean or median, dose: 0.5 mg/kg/injection, schedule: Q01DX010 (ip), vehicle: saline): 157 % of control
T/C (endpoint: survival time, mean or median, dose: 1.0 mg/kg/injection, schedule: Q01DX010 (ip), vehicle: saline): 164 % of control and 214 % of control
T/C (endpoint: survival time, mean or median, dose: 2.0 mg/kg/injection, schedule: Q01DX010 (ip), vehicle: saline): 176 % of control and 242 % of control
T/C (endpoint: survival time, mean or median, dose: 4.0 mg/kg/injection, schedule: Q01DX010 (ip), vehicle: saline): 100 % of control

CCCNc1ncnc2[nH]ncc12
T/C (endpoint: survival time, mean or median, dose: 0.31 mg/kg/injection, schedule: Q01DX Z (ip), vehicle: water): 94 % of control
T/C (endpoint: survival time, mean or median, dose: 0.63 mg/kg/injection, schedule: Q01DX Z (ip), vehicle: water): 90 % of control
T/C (endpoint: survival time, mean or median, dose: 2.5 mg/kg/injection, schedule: Q01DX Z (ip), vehicle: water): 108 % of control and 114 % of control
T/C (endpoint: survival time, mean or median, dose: 5.0 mg/kg/injection, schedule: Q01DX Z (ip), vehicle: water): 112 % of control
T/C (endpoint: survival time, mean or median, dose: 10.0 mg/kg/injection, schedule: Q01DX Z (ip), vehicle: water): 106 % of control and 91 % of control
T/C (endpoint: survival time, mean or median, dose: 20.0 mg/kg/injection, schedule: Q01DX Z (ip), vehicle: water): 108 % of control
T/C (endpoint: survival time, mean or median, dose: 40.0 mg/kg/injection, schedule: Q01DX Z (ip), vehicle: water): 103 % of control

CN1c2c(nc(N)[nH]c2=O)NCC1CCNc1ccc(C(=O)NC(CCC(=O)O)C(=O)O)cc1 (stereo not drawn)
T/C (endpoint: median survival time, dose: 6.25 mg/kg/injection, schedule: Q01DX009 (ip), vehicle: other): 104 % of control
T/C (endpoint: median survival time, dose: 12.5 mg/kg/injection, schedule: Q01DX009 (ip), vehicle: other): 104 % of control
T/C (endpoint: median survival time, dose: 25.0 mg/kg/injection, schedule: Q01DX009 (ip), vehicle: other): 108 % of control
T/C (endpoint: median survival time, dose: 50.0 mg/kg/injection, schedule: Q01DX009 (ip), vehicle: other): 116 % of control
T/C (endpoint: median survival time, dose: 400.0 mg/kg/injection, schedule: Q01DX009 (ip), vehicle: other): 162 % of control
T/C (endpoint: median survival time, dose: 800.0 mg/kg/injection, schedule: Q01DX009 (ip), vehicle: other): 100 % of control

Cn1cnc([N+](=O)[O-])c1Sc1ncnc2nc[nH]c12
T/C (endpoint: survival time, mean or median, dose: 12.5 mg/kg/injection, schedule: Q01DX Z (ip), vehicle: carboxymethylcellulose (CMC)): 104 % of control
T/C (endpoint: survival time, mean or median, dose: 25.0 mg/kg/injection, schedule: Q01DX Z (ip), vehicle: carboxymethylcellulose (CMC)): 112 % of control
T/C (endpoint: survival time, mean or median, dose: 50.0 mg/kg/injection, schedule: Q01DX Z (ip), vehicle: carboxymethylcellulose (CMC)): 114 % of control
T/C (endpoint: survival time, mean or median, dose: 100.0 mg/kg/injection, schedule: Q01DX Z (ip), vehicle: carboxymethylcellulose (CMC)): 98 % of control
